According to BindingDB's records for doi:10.1016/j.bmcl.2010.07.082 (Ligand Pharmaceuticals, 2010):

Assay: Antagonist activity at CCR1 in human THP1 cells assessed as inhibition of CCL3-induced chemotaxis after 3 hrs

Row | Compound | IC50
1 | O=C(Nc1ccc(C(F)(F)F)cc1)N1CCC[C@@H]1c1ncnn1Cc1ccc(Cl)cc1 [(R)-2-(1-(4-chlorobenzyl)-1H-1,2,4-triazol-5-yl)-N-(4-(trifluoromethyl)phenyl)pyrrolidine-1-carboxamide] | 22 nM
2 | Cc1nnc([C@H]2CCCN2C(=O)Nc2ccc(C(F)(F)F)cc2)n1Cc1ccc(Cl)cc1 [(R)-2-(4-(4-chlorobenzyl)-5-methyl-4H-1,2,4-triazol-3-yl)-N-(4-(trifluoromethyl)phenyl)pyrrolidine-1-carboxamide] | 2.9 nM
3 | O=C(Nc1ccc(C(F)(F)F)cc1)N1CCC[C@@H]1c1nncn1Cc1ccc(Cl)cc1 [(R)-2-(4-(4-chlorobenzyl)-4H-1,2,4-triazol-3-yl)-N-(4-(trifluoromethyl)phenyl)pyrrolidine-1-carboxamide] | 4 nM

Further lines, results first:

Row | IC50 | Compound
4 | 6.5 nM | O=C(Nc1ccc(C(F)(F)F)cc1)N1CCC[C@@H]1c1nnnn1Cc1ccc(Cl)cc1 [(R)-2-(1-(4-chlorobenzyl)-1H-tetrazol-5-yl)-N-(4-(trifluoromethyl)phenyl)pyrrolidine-1-carboxamide]
5 | 16 nM | O=C(Nc1ccc(C(F)(F)F)cc1)N1CCCC1c1nccn1Cc1ccc(Cl)cc1 (stereo not given) [2-(1-(4-chlorobenzyl)-1H-imidazol-2-yl)-N-(4-(trifluoromethyl)phenyl)pyrrolidine-1-carboxamide]
